Values joined by “and” are separate entries in the source; they are usually repeats but may differ in a detail not shown here. Equal values may be shown once.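 Where inhibition never reached the appropriate level, the endpoint shown equals the highest concentration tested. Otherwise, values were interpolated linearly from a five-concentration, 48-hour dose response in 96-well plates. GI50 marks 50% less growth. TGI: total growth inhibition.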
What was measured:
Experiment in all cases: NCI anticancer screen, dose series, 48 h
CAKI-1 renal = system: CAKI-1 renal
A498 renal = system: A498 renal
K-562 leukemia = system: K-562 leukemia
KM12 colon = system: KM12 colon
RXF 393 renal = system: RXF 393 renal
SF-295 CNS = system: SF-295 CNS
OVCAR-5 ovarian = system: OVCAR-5 ovarian
UACC-257 melanoma = system: UACC-257 melanoma
NCI-H460 lung = system: NCI-H460 lung
T-47D breast = system: T-47D breast

SMILES: O=C1[C@@H]2C3SC(c4ccccc43)[C@@H]2C(=O)N1c1ccccc1
- TGI (CAKI-1 renal): > 100 µM
- TGI (A498 renal): > 100 µM
- TGI (K-562 leukemia): > 100 µM
- TGI (KM12 colon): > 100 µM
- TGI (RXF 393 renal): > 100 µM
- TGI (SF-295 CNS): > 100 µM
- TGI (OVCAR-5 ovarian): > 100 µM
- TGI (UACC-257 melanoma): > 100 µM
- TGI (NCI-H460 lung): > 100 µM

SMILES: O=C(CC(=O)Nc1ccccc1O)Nc1ccccc1O
- TGI (CAKI-1 renal): > 100 µM
- TGI (A498 renal): > 100 µM
- TGI (K-562 leukemia): 25.7 µM
- TGI (KM12 colon): > 100 µM
- TGI (SF-295 CNS): > 100 µM
- TGI (OVCAR-5 ovarian): > 100 µM
- TGI (UACC-257 melanoma): 30 µM
- TGI (NCI-H460 lung): 66.3 µM

SMILES: Nc1ccc2c(c1)CC1c3ccccc3C(C2)c2ccccc21
- TGI (CAKI-1 renal): > 100 µM
- TGI (A498 renal): > 100 µM
- TGI (K-562 leukemia): > 100 µM
- TGI (KM12 colon): > 100 µM
- TGI (RXF 393 renal): > 100 µM
- TGI (SF-295 CNS): > 100 µM
- TGI (OVCAR-5 ovarian): > 100 µM
- TGI (UACC-257 melanoma): > 100 µM
- TGI (NCI-H460 lung): > 100 µM

SMILES: Cc1ccccc1NC(=O)C1C(=O)N(c2ccccc2C)C(=O)/C1=N\N (centres undefined)
- TGI (CAKI-1 renal): > 100 µM
- TGI (A498 renal): > 100 µM
- TGI (K-562 leukemia): > 100 µM
- TGI (KM12 colon): > 100 µM
- TGI (RXF 393 renal): > 100 µM
- TGI (SF-295 CNS): > 100 µM
- TGI (OVCAR-5 ovarian): > 100 µM
- TGI (UACC-257 melanoma): > 100 µM
- TGI (NCI-H460 lung): > 100 µM

SMILES: Nc1nc(N)c(N=O)c(Nc2ccc(I)cc2)n1
- TGI (K-562 leukemia): > 100 µM
- TGI (KM12 colon): > 100 µM
- TGI (RXF 393 renal): 55.2 µM
- TGI (SF-295 CNS): 67.9 µM
- TGI (OVCAR-5 ovarian): 61 µM
- TGI (UACC-257 melanoma): 70.1 µM
- TGI (NCI-H460 lung): > 100 µM

SMILES: COc1cc(C(=O)C/C(CCC(=O)Nc2ccc(Cl)cc2Cl)=N/NC(=O)C(N)=O)ccc1O
- TGI (CAKI-1 renal): > 100 µM
- TGI (A498 renal): > 100 µM
- TGI (K-562 leukemia): > 100 µM
- TGI (KM12 colon): > 100 µM
- TGI (SF-295 CNS): > 100 µM
- TGI (OVCAR-5 ovarian): > 100 µM
- TGI (UACC-257 melanoma): > 100 µM
- TGI (NCI-H460 lung): > 100 µM

SMILES: COc1cc2c(c(OC)c1OC)-c1ccc(SC)c(=O)cc1[C@@H](NCc1cccc(C#N)c1)CC2
- TGI (CAKI-1 renal): > 75 µM
- TGI (A498 renal): 0.0732 µM
- GI50 (K-562 leukemia): < 0.0075 µM
- TGI (K-562 leukemia): 18.2 µM
- GI50 (KM12 colon): < 0.0075 µM
- TGI (KM12 colon): 0.0509 µM and 0.0128 µM
- GI50 (SF-295 CNS): < 0.0075 µM
- GI50 (OVCAR-5 ovarian): > 75 µM
- TGI (OVCAR-5 ovarian): > 75 µM
- GI50 (UACC-257 melanoma): 6.18 µM
- TGI (UACC-257 melanoma): > 75 µM
- TGI (NCI-H460 lung): 8.97 µM

SMILES: CC(=O)Nc1ccccc1-c1cnc2ccccc2n1
- TGI (CAKI-1 renal): > 100 µM
- TGI (A498 renal): > 100 µM
- TGI (K-562 leukemia): > 100 µM
- TGI (KM12 colon): > 100 µM
- TGI (SF-295 CNS): > 100 µM
- TGI (OVCAR-5 ovarian): > 100 µM
- TGI (UACC-257 melanoma): > 100 µM
- TGI (NCI-H460 lung): > 100 µM

SMILES: Cc1ccc(NC(=O)CC/C(CC(=O)c2ccc(F)cc2)=N\NC(=O)C(=O)NN)cc1C
- TGI (CAKI-1 renal): > 100 µM
- TGI (A498 renal): > 100 µM
- TGI (K-562 leukemia): > 100 µM
- TGI (KM12 colon): > 100 µM
- TGI (RXF 393 renal): > 100 µM
- TGI (SF-295 CNS): > 100 µM
- TGI (OVCAR-5 ovarian): > 100 µM
- TGI (UACC-257 melanoma): > 100 µM
- TGI (NCI-H460 lung): > 100 µM

SMILES: O=C(/C=C/c1ccccc1O)c1cccnc1
- TGI (CAKI-1 renal): > 100 µM
- TGI (A498 renal): > 100 µM
- TGI (K-562 leukemia): > 100 µM
- TGI (KM12 colon): > 100 µM
- TGI (RXF 393 renal): > 100 µM
- TGI (SF-295 CNS): > 100 µM
- TGI (OVCAR-5 ovarian): > 100 µM
- TGI (UACC-257 melanoma): > 100 µM
- TGI (NCI-H460 lung): > 100 µM

SMILES: CCOC(=O)C(Cc1ccccc1)NC(=O)OC(C)(C)C (centres undefined)
- TGI (A498 renal): > 100 µM
- TGI (K-562 leukemia): > 100 µM
- TGI (KM12 colon): > 100 µM
- TGI (SF-295 CNS): > 100 µM
- TGI (OVCAR-5 ovarian): > 100 µM
- TGI (UACC-257 melanoma): > 100 µM
- TGI (NCI-H460 lung): > 100 µM

SMILES: C#C[C@@]1(O)[C@@H](CO)O[C@@H](n2ccc3c(N)ncnc32)[C@@H]1O
- GI50 (K-562 leukemia): 0.806 µM
- TGI (K-562 leukemia): > 100 µM
- GI50 (KM12 colon): 1.82 µM
- TGI (KM12 colon): 10.9 µM
- GI50 (RXF 393 renal): 1.93 µM
- TGI (RXF 393 renal): 4.6 µM
- GI50 (SF-295 CNS): 1.73 µM
- TGI (SF-295 CNS): 5.33 µM
- GI50 (OVCAR-5 ovarian): 3.1 µM
- TGI (OVCAR-5 ovarian): 8.54 µM
- GI50 (T-47D breast): 0.445 µM
- TGI (T-47D breast): 2.14 µM
- GI50 (UACC-257 melanoma): 2.31 µM
- TGI (UACC-257 melanoma): 7.06 µM
- GI50 (NCI-H460 lung): 0.473 µM
- TGI (NCI-H460 lung): 10.6 µM

SMILES: O=C(O)CCCCCO
- TGI (CAKI-1 renal): > 100 µM
- TGI (A498 renal): > 100 µM
- TGI (K-562 leukemia): > 100 µM
- TGI (KM12 colon): > 100 µM
- TGI (RXF 393 renal): > 100 µM
- TGI (SF-295 CNS): > 100 µM
- TGI (OVCAR-5 ovarian): > 100 µM
- TGI (UACC-257 melanoma): > 100 µM
- TGI (NCI-H460 lung): > 100 µM

SMILES: NCCCC1NC(=O)/C(=C(O)/C=C/C2CCC[C@@H]2CC2SCCS2)C1=O (some centres undefined)
- TGI (A498 renal): > 100 µM
- TGI (K-562 leukemia): > 100 µM
- TGI (KM12 colon): > 100 µM
- TGI (RXF 393 renal): > 100 µM
- TGI (SF-295 CNS): > 100 µM
- TGI (OVCAR-5 ovarian): > 100 µM
- TGI (UACC-257 melanoma): > 100 µM
- TGI (NCI-H460 lung): > 100 µM

SMILES: COc1cc2nc(N3CCCC3)nc(Nc3ccccc3)c2cc1OC
- GI50 (CAKI-1 renal): 1.45 µM
- TGI (CAKI-1 renal): 2.8 µM
- GI50 (A498 renal): 1.02 µM
- TGI (A498 renal): 2.28 µM
- GI50 (K-562 leukemia): 0.382 µM
- TGI (K-562 leukemia): 2.07 µM
- GI50 (KM12 colon): 1.74 µM
- TGI (KM12 colon): 3.32 µM
- GI50 (RXF 393 renal): 1.4 µM
- TGI (RXF 393 renal): 2.78 µM
- GI50 (SF-295 CNS): 1.8 µM
- TGI (SF-295 CNS): 3.27 µM
- GI50 (OVCAR-5 ovarian): 1.75 µM
- TGI (OVCAR-5 ovarian): 3.14 µM
- GI50 (UACC-257 melanoma): 1.86 µM
- TGI (UACC-257 melanoma): 3.79 µM
- GI50 (NCI-H460 lung): 1.86 µM
- TGI (NCI-H460 lung): 3.59 µM

SMILES: CC1=C(C(=O)CC(=O)C(=O)Nc2ccccc2)Sc2ccccc2N1
- TGI (A498 renal): > 100 µM
- TGI (K-562 leukemia): > 100 µM
- TGI (KM12 colon): > 100 µM
- TGI (RXF 393 renal): > 100 µM
- TGI (SF-295 CNS): > 100 µM
- TGI (OVCAR-5 ovarian): > 100 µM
- TGI (UACC-257 melanoma): > 100 µM
- TGI (NCI-H460 lung): > 100 µM

Reference: PubChem BioAssay (NCI)
